# Measurements reported in ChEMBL document CHEMBL4765364, “Synthesis, antibacterial and antifungal activity of new 3-biphenyl-3H-Imidazo[1,2-a]azepin-1-ium bromides” (Eur J Med Chem, 2020).
# Calls of active or inactive are those of the source. The calls are words filed in the database; no cut-off is given here.
# Experiments:
# [1] = tested on: Klebsiella pneumoniae; assay: Antibacterial activity against Klebsiella pneumoniae ATCC 700603 measured after 18 hrs; assay type: functional
# [2] = tested on: Escherichia coli; assay: Antibacterial activity against Escherichia coli ATCC 25922 measured after 18 hrs; assay type: functional
# [3] = tested on: Acinetobacter baumannii; assay: Antibacterial activity against Acinetobacter baumannii ATCC 19606 measured after 18 hrs; assay type: functional; conditions: ATCC 19606 = CIP 70.34 = JCM 6841
# [4] = tested on: Pseudomonas aeruginosa; assay: Antibacterial activity against Pseudomonas aeruginosa ATCC 27853 measured after 18 hrs; assay type: functional
# [5] = Cytotoxicity against HEK293 cells measured after 20 hrs by resazurin dye based fluorescence assay; assay type: cell-based; conditions: human
# [6] = tested on: Staphylococcus aureus; assay: Antibacterial activity against methicillin resistant Staphylococcus aureus ATCC 43300 measured after 18 hrs; assay type: functional
# [7] = tested on: Cryptococcus neoformans; assay: Antifungal activity against Cryptococcus neoformans ATCC 208821 at 32 ug/ml measured after 24 hrs by resazurin dye based assay; assay type: functional
# [8] = tested on: Cryptococcus neoformans; assay: Antifungal activity against Cryptococcus neoformans ATCC 208821 measured after 24 hrs by resazurin dye based assay; assay type: functional
# [9] = tested on: Pseudomonas aeruginosa; assay: Antibacterial activity against Pseudomonas aeruginosa ATCC 27853 at 32 ug/ml measured after 18 hrs; assay type: functional
# [10] = tested on: Staphylococcus aureus; assay: Antibacterial activity against methicillin resistant Staphylococcus aureus ATCC 43300 at 32 ug/ml measured after 18 hrs; assay type: functional
# [11] = tested on: Escherichia coli; assay: Antibacterial activity against Escherichia coli ATCC 25922 at 32 ug/ml measured after 18 hrs; assay type: functional
# [12] = tested on: Candida albicans; assay: Antifungal activity against Candida albicans ATCC 90028 measured after 24 hrs by resazurin dye based assay; assay type: functional
# [13] = tested on: Klebsiella pneumoniae; assay: Antibacterial activity against Klebsiella pneumoniae ATCC 700603 at 32 ug/ml measured after 18 hrs; assay type: functional
# [14] = tested on: Candida albicans; assay: Antifungal activity against Candida albicans ATCC 90028 at 32 ug/ml measured after 24 hrs by resazurin dye based assay; assay type: functional
# [15] = tested on: Acinetobacter baumannii; assay: Antibacterial activity against Acinetobacter baumannii ATCC 19606 at 32 ug/ml measured after 18 hrs; assay type: functional, ATCC 19606 = CIP 70.34 = JCM 6841
# [16] = ATCC 19606 = CIP 70.34 = JCM 6841, dose 32.0 µg/ml
Molecule,MIC [1] [µg/mL],MIC [2] [µg/mL],MIC [3] [µg/mL],MIC [4] [µg/mL],CC50 at 20 h [5] [µg/mL],MIC [6] [µg/mL],Activity ([7]; dose 32 µg/ml) [%],MIC [8] [µg/mL],Activity ([9]; dose 32 µg/ml) [%],Activity ([10]; dose 32 µg/ml) [%],Activity ([11]; dose 32 µg/ml) [%],MIC [12] [µg/mL],Activity ([13]; dose 32 µg/ml) [%],Activity ([14]; dose 32 µg/ml) [%],Activity ([15]; dose 32 µg/ml) [%],other results
COLISTIN,0.25,0.125,0.25,0.25,,,,,,,,,,,,
CC/C(=C(\c1ccccc1)c1ccc(OCCN(C)C)cc1)c1ccccc1 [TAMOXIFEN],,,,,9,,,,,,,,,,,
COc1ccccc1[N+]1=C2CCCCCN2C(O)(c2ccc(-c3ccccc3)cc2)C1.[Br-] (stereo unspecified),> 32,> 32,> 32,> 32,2.2,16,>80,8,>80,>80,>80,32,>80,>80,>80,
COc1ccc([N+]2=C3COCCN3C(O)(c3ccc(-c4ccccc4)cc3)C2)cc1 (stereo unspecified),,,,,,,,,,,,,,,,"Activity ([7]; dose 32.0 µg/ml): inactive; Activity ([9]; dose 32.0 µg/ml): inactive; Activity ([10]; dose 32.0 µg/ml): inactive; Activity ([11]; dose 32.0 µg/ml): inactive; Activity ([13]; dose 32.0 µg/ml): inactive; Activity ([14]; dose 32.0 µg/ml): inactive; Activity [15, 16]: inactive"
OC1(c2ccc(-c3ccccc3)cc2)C[N+](c2ccc(Br)cc2)=C2CCCCCN21.[Br-] (stereo unspecified),> 32,> 32,> 32,> 32,6.1,> 32,>80,> 32,>80,>80,>80,> 32,>80,>80,>80,
COc1ccc([N+]2=C3CCCCN3C(O)(c3ccc(-c4ccccc4)cc3)C2)cc1 (stereo unspecified),,,,,,,,,,,,,,,,"Activity ([7]; dose 32.0 µg/ml): inactive; Activity ([9]; dose 32.0 µg/ml): inactive; Activity ([10]; dose 32.0 µg/ml): inactive; Activity ([11]; dose 32.0 µg/ml): inactive; Activity ([13]; dose 32.0 µg/ml): inactive; Activity ([14]; dose 32.0 µg/ml): inactive; Activity [15, 16]: inactive"
CCc1ccc(-[n+]2cc(-c3ccc(-c4ccccc4)cc3)n3c2CCCCC3)cc1.[Br-],> 32,> 32,> 32,32,1.4,4,>80,8,>80,>80,>80,4,>80,>80,>80,
Cc1ccc(-[n+]2cc(-c3ccc(-c4ccccc4)cc3)n3c2CCCCC3)cc1.[Br-],> 32,> 32,> 32,> 32,2.1,8,>80,16,>80,>80,>80,8,>80,>80,>80,
CCc1ccc([N+]2=C3CCCCCN3C(O)(c3ccc(-c4ccccc4)cc3)C2)cc1.[Br-] (stereo unspecified),> 32,> 32,> 32,32,2.2,8,>80,32,>80,>80,>80,> 32,>80,>80,>80,
OC1(c2ccc(-c3ccccc3)cc2)C[N+](c2ccccc2)=C2CCCCCN21.[Br-] (stereo unspecified),> 32,> 32,> 32,> 32,2.3,32,>80,> 32,>80,>80,>80,> 32,>80,>80,>80,
Cc1ccc([N+]2=C3CCCCCN3C(O)(c3ccc(-c4ccccc4)cc3)C2)cc1.[Br-] (stereo unspecified),> 32,> 32,> 32,> 32,2.7,16,>80,> 32,>80,>80,>80,> 32,>80,>80,>80,
OC(Cn1cncn1)(Cn1cncn1)c1ccc(F)cc1F [FLUCONAZOLE],,,,,,,,8,,,,0.125,,,,
CCOc1ccc(-[n+]2cc(-c3ccc(-c4ccccc4)cc3)n3c2CCCCC3)cc1.[Br-],> 32,> 32,> 32,32,1.7,4,>80,16,>80,>80,>80,8,>80,>80,>80,
COc1ccc([N+]2=C3CCCCCN3C(O)(c3ccc(-c4ccccc4)cc3)C2)cc1.[Br-] (stereo unspecified),> 32,> 32,> 32,> 32,2.6,16,>80,32,>80,>80,>80,> 32,>80,>80,>80,
OC1(c2ccc(-c3ccccc3)cc2)C[N+](c2ccc(OC(F)F)cc2)=C2CCCCCN21.[Br-] (stereo unspecified),> 32,> 32,> 32,> 32,5.8,16,>80,> 32,>80,>80,>80,> 32,>80,>80,>80,
COc1ccc([N+]2=C3CCCCCN3C(O)(c3ccc(-c4ccccc4)cc3)C2)c(OC)c1.[Br-] (stereo unspecified),> 32,> 32,> 32,32,2.4,8,>80,32,>80,>80,>80,> 32,>80,>80,>80,
OC1(c2ccc(-c3ccccc3)cc2)C[N+](c2ccc(Cl)cc2)=C2CCCCCN21.[Br-] (stereo unspecified),> 32,> 32,> 32,32,3.9,16,>80,> 32,>80,>80,>80,> 32,>80,>80,>80,
CCOc1ccc([N+]2=C3CCCCCN3C(O)(c3ccc(-c4ccccc4)cc3)C2)cc1.[Br-] (stereo unspecified),> 32,> 32,> 32,> 32,2.4,16,>80,32,>80,>80,>80,> 32,>80,>80,>80,
OC1(c2ccc(-c3ccccc3)cc2)C[N+](c2ccc3c(c2)OCO3)=C2CCCCCN21.[Br-] (stereo unspecified),> 32,> 32,> 32,> 32,4.5,32,>80,> 32,>80,>80,>80,> 32,>80,>80,>80,
